The numbers were not newly measured in US8940662B2, “Methods for controlling pests” (BASF Corporation, priority 2009, dated 2015), which cites them from elsewhere.

One series concerns ants. The conditions noted are these: general statement.
Another series concerns termites. Particulars: general statement.

For `N#Cc1nn(-c2c(Cl)cc(C(F)(F)F)cc2Cl)c(N)c1[S+]([O-])C(F)(F)F` (racemic) [fipronil, (±)-5-amino-1-(2,6-dichloro-α,α,α-trifluoro-p-tolyl)-4-trifluoromethylsulfinylpyrazole-3-carbonitrile], in the series on ants, the “Toxic dose to ants” value is listed as “about 1 nanogram per ant”. For the same compound, the “Toxic dose to termites” value with termites was 2 nanograms per termite.
